Results as given in patent US9334264B2, “NAMPT inhibitors” (AbbVie Inc., priority 2012, dated 2016).

Legend:
[1] = tested on: collagen-induced arthritis; settings: cited from earlier work
[2] = tested on: activated T cells; settings: cited from earlier work
[3] = tested on: experimental autoimmune encephalomyelitis (EAE); settings: a model of T-cell mediated autoimmune disorders; cited from earlier work
[4] = target: NAMPT (human, recombinant, C-terminally His-tagged) (Homo sapiens, UniProt P43490); test: Time-Resolved Fluorescence Resonance Energy Transfer (TR-FRET) Binding Assay of NAMPT; settings: absence of substrates; 6.8 nM NAMPT, 200 nM probe, equilibrated 3 hours
Chain of NAMPT (human, recombinant, C-terminally His-tagged) (P43490 whole entry): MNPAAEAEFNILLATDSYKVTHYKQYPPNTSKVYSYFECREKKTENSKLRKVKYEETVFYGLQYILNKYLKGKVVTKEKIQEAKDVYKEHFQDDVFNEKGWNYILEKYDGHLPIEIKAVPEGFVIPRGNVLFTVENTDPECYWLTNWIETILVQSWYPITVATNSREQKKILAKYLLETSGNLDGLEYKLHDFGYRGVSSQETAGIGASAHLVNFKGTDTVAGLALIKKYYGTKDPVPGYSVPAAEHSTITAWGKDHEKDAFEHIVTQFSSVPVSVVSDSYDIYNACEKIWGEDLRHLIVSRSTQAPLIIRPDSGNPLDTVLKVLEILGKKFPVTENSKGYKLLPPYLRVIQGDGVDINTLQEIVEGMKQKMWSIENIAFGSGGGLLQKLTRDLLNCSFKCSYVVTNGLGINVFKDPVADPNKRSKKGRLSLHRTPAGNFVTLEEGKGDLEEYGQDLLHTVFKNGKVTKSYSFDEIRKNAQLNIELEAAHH
Method in brief: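 Displacement of 200 nM Oregon Green-labelled nicotinamide-competitive probe from 6.8 nM His-tagged NAMPT, detected with 1 nM Tb-anti-His; HEPES pH 7.5, 2% DMSO, 3 h room temperature. Em520/Em495 ratios normalized and fit four-parameter logistic for IC50.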

[5] = target: NAMPT (Homo sapiens, UniProt P43490); test: Time-Resolved Fluorescence Resonance Energy Transfer (TR-FRET) Binding Assay of NAMPT with PRPP; settings: 200 μM PRPP and 2.5 mM ATP; 2 nM NAMPT, 2 nM probe, equilibrated 16 hours
Chain of NAMPT (P43490 whole entry): as above
Method in brief: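 Binding was measured by TR-FRET with 2 nM NAMPT, 2 nM probe and 1 nM Tb-anti-His antibody in the presence of 200 μM PRPP and 2.5 mM ATP, with 2% DMSO. Equilibration lasted 16 h before reading, allowing possible enzymatic modification of compounds.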

Structure (SMILES)	IC50 [4] [nM]	IC50 [5] [nM]	other results
O=C(/C=C/c1cccnc1)NCCCCC1CCN(C(=O)c2ccccc2)CC1 [FK866]	–	–	efficacy in animal models of arthritis [1]: efficacious; apoptosis of activated T cells [2]: induce apoptosis; proliferation of activated T cells [2]: selectively block proliferation; manifestations of experimental autoimmune encephalomyelitis [3]: ameliorated the manifestations
CN1CCN(CC(=O)N(Cc2ccc(F)cc2)c2ncc(C(=O)NCCCn3ccnc3)s2)CC1 [Example 30, 2-{(4-fluorobenzyl)[(4-methylpiperazin-1-yl)acetyl]amino}-N-[3-(1H-imidazol-1-yl)propyl]-1,3-thiazole-5-carboxamide]	> 10000	2.29	–
N#Cc1ccc(CN(C(=O)NC2CC(C(=O)O)C2)c2ncc(C(=O)NCCCn3ccnc3)s2)cc1 (stereo not drawn) [Example 164, 3-{[(4-cyanobenzyl)(5-{[3-(1H-imidazol-1-yl)propyl]carbamoyl}-1,3-thiazol-2-yl)carbamoyl]amino}cyclobutanecarboxylic acid]	> 10000	583	–
CC(C)CCN(Cc1ccc(C#N)cc1)c1ncc(C(=O)NCCCn2ccnc2)s1 [Example 60, 2-[(4-cyanobenzyl)(3-methylbutyl)amino]-N-[3-(1H-imidazol-1-yl)propyl]-1,3-thiazole-5-carboxamide]	> 10000	4.97	–
O=C(NCCCn1ccnc1)c1cnc(N2CCN(CCO)C2=O)s1 [Example 203, 2-[3-(2-hydroxyethyl)-2-oxoimidazolidin-1-yl]-N-[3-(1H-imidazol-1-yl)propyl]-1,3-thiazole-5-carboxamide]	> 10000	13.6	–
CCOC(=O)C(C)(C)CNC(=O)N(Cc1ccc(C#N)cc1)c1ncc(C(=O)NCCCn2ccnc2)s1 [Example 163, ethyl 3-{[(4-cyanobenzyl)(5-{[3-(1H-imidazol-1-yl)propyl]carbamoyl}-1,3-thiazol-2-yl)carbamoyl]amino}-2,2-dimethylpropanoate]	6800	171	–
CC(CO)NC(=O)N(Cc1ccc(C#N)cc1)c1ncc(C(=O)NCCCn2ccnc2)s1 (stereo not drawn) [Example 129, 2-{(4-cyanobenzyl)[(1-hydroxypropan-2-yl)carbamoyl]amino}-N-[3-(1H-imidazol-1-yl)propyl]-1,3-thiazole-5-carboxamide]	> 10000	1.16	–
CCN1CC(CN(C(=O)CCOC)c2ncc(C(=O)NCCCn3ccnc3)s2)CC1=O (stereo not drawn) [Example 193, 2-{[(1-ethyl-5-oxopyrrolidin-3-yl)methyl](3-methoxypropanoyl)amino}-N-[3-(1H-imidazol-1-yl)propyl]-1,3-thiazole-5-carboxamide]	6060	0.755	–
COCCC(=O)N(CCC1OCCO1)c1ncc(C(=O)NCCCn2ccnc2)s1 [Example 180, 2-{[2-(1,3-dioxolan-2-yl)ethyl](3-methoxypropanoyl)amino}-N-[3-(1H-imidazol-1-yl)propyl]-1,3-thiazole-5-carboxamide]	7710	0.333	–
CCOCCN1CCN(CC(=O)N(Cc2ccc(F)cc2)c2ncc(C(=O)NCCCn3ccnc3)s2)CC1 [Example 35, 2-[{[4-(2-ethoxyethyl)piperazin-1-yl]acetyl}(4-fluorobenzyl)amino]-N-[3-(1H-imidazol-1-yl)propyl]-1,3-thiazole-5-carboxamide]	> 10000	3.18	–
COCCC(=O)N(CC1CCCO1)c1ncc(C(=O)NCCCn2ccnc2)s1 (stereo not drawn) [Example 178, N-[3-(1H-imidazol-1-yl)propyl]-2-[(3-methoxypropanoyl)(tetrahydrofuran-2-ylmethyl)amino]-1,3-thiazole-5-carboxamide]	6970	0.813	–
COCCC(=O)N(Cc1ccccn1)c1ncc(C(=O)NCCCn2ccnc2)s1 [Example 121, N-[3-(1H-imidazol-1-yl)propyl]-2-[(3-methoxypropanoyl)(pyridin-2-ylmethyl)amino]-1,3-thiazole-5-carboxamide]	> 10000	9.25	–
COCCC(=O)N(CC(=O)N1CCCCC1)c1ncc(C(=O)NCCCn2ccnc2)s1 [Example 196, N-[3-(1H-imidazol-1-yl)propyl]-2-{(3-methoxypropanoyl)[2-oxo-2-(piperidin-1-yl)ethyl]amino}-1,3-thiazole-5-carboxamide]	7010	0.538	–

More lines, main results first:

IC50 [4] [nM]	IC50 [5] [nM]	Structure (SMILES)	other results
1930	1.8	COCCC(=O)N(CCc1cccc(Cl)c1)c1ncc(C(=O)NCCCn2ccnc2)s1 [Example 106, 2-{[2-(3-chlorophenyl)ethyl](3-methoxypropanoyl)amino}-N-[3-(1H-imidazol-1-yl)propyl]-1,3-thiazole-5-carboxamide acetate (1:1)]	–
810	1.08	COCCC(=O)N(Cc1ccc(C#N)cc1)c1ncc(C(=O)NCCCn2ccnc2)s1 [Example 62, 2-[(4-cyanobenzyl)(3-methoxypropanoyl)amino]-N-[3-(1H-imidazol-1-yl)propyl]-1,3-thiazole-5-carboxamide]	–
5710	1.03	O=C(NCCCn1ccnc1)c1cnc(N2C[C@H](CN3C(=O)c4ccccc4C3=O)OC2=O)s1 [Example 212, 2-{(5S)-5-[(1,3-dioxo-1,3-dihydro-2H-isoindol-2-yl)methyl]-2-oxo-1,3-oxazolidin-3-yl}-N-[3-(1H-imidazol-1-yl)propyl]-1,3-thiazole-5-carboxamide]	–
2200	1.99	O=C(NCCCn1ccnc1)c1cnc(N(Cc2ccc(F)cc2)C(=O)CN2CCOCC2)s1 [Example 40, 2-[(4-fluorobenzyl)(morpholin-4-ylacetyl)amino]-N-[3-(1H-imidazol-1-yl)propyl]-1,3-thiazole-5-carboxamide]	–
996	505	CCN(CC)C(=O)CN(Cc1ccc(F)cc1)c1ncc(C(=O)NCCCn2ccnc2)s1 [Example 21, 2-{[2-(diethylamino)-2-oxoethyl](4-fluorobenzyl)amino}-N-[3-(1H-imidazol-1-yl)propyl]-1,3-thiazole-5-carboxamide]	–
1720	807	CC(C)CCN(Cc1cccc(Cl)c1)c1ncc(C(=O)NCCCn2ccnc2)s1 [Example 58, 2-[(3-chlorobenzyl)(3-methylbutyl)amino]-N-[3-(1H-imidazol-1-yl)propyl]-1,3-thiazole-5-carboxamide]	–
2890	0.25	O=C(NCCCn1ccnc1)c1cnc(N(CCc2ccc(Cl)cn2)C(=O)C2CCOC2)s1 (stereo not drawn) [Example 208, 2-{[2-(5-chloropyridin-2-yl)ethyl](tetrahydrofuran-3-ylcarbonyl)amino}-N-[3-(1H-imidazol-1-yl)propyl]-1,3-thiazole-5-carboxamide]	–
1010	0.881	N#Cc1ccc(CCN(C(=O)CC2CCOC2)c2ncc(C(=O)NCCCn3ccnc3)s2)cc1 (stereo not drawn) [Example 52, 2-{[2-(4-cyanophenyl)ethyl](tetrahydrofuran-3-ylacetyl)amino}-N-[3-(1H-imidazol-1-yl)propyl]-1,3-thiazole-5-carboxamide]	–
2530	320	Cc1nccn1CCCNC(=O)c1cnc(N(Cc2ccc(F)cc2)C(=O)CC(C)C)s1 [Example 53, 2-[(4-fluorobenzyl)(3-methylbutanoyl)amino]-N-[3-(2-methyl-1H-imidazol-1-yl)propyl]-1,3-thiazole-5-carboxamide]	–
709	3.06	COCCC(=O)N(CCc1ccc(Cl)cc1)c1ncc(C(=O)NCCCn2ccnc2)s1 [Example 103, 2-{[2-(4-chlorophenyl)ethyl](3-methoxypropanoyl)amino}-N-[3-(1H-imidazol-1-yl)propyl]-1,3-thiazole-5-carboxamide acetate (1:1)]	–
384	60.2	O=C(NCCCn1ccnc1)c1cnc(N(CC(=O)N2CCOCC2)Cc2ccc(F)cc2)s1 [Example 22, 2-{(4-fluorobenzyl)[2-(morpholin-4-yl)-2-oxoethyl]amino}-N-[3-(1H-imidazol-1-yl)propyl]-1,3-thiazole-5-carboxamide]	–
40.2	0.236	CC(C)CCN(C(=O)CCc1ccccc1)c1ncc(C(=O)NCCCn2ccnc2)s1 [Example 137, N-[3-(1H-imidazol-1-yl)propyl]-2-[(3-methylbutyl)(3-phenylpropanoyl)amino]-1,3-thiazole-5-carboxamide]	–
1630	1.4	COCCC(=O)N(Cc1ccc(F)cc1)c1ncc(C(=O)NCCCn2ccnc2)s1 [Example 25, 2-[(4-fluorobenzyl)(3-methoxypropanoyl)amino]-N-[3-(1H-imidazol-1-yl)propyl]-1,3-thiazole-5-carboxamide]	–
